Assays:
[1] = target: T1, A2A human adenosine receptor (A2AR) (Homo sapiens, UniProt P29274); test: Radioligand binding competition assay, human A2A receptor in transfected HeLa cells; details: for % displacement at 0.1 μM (A2AR): 0.1 µM compound; for Ki: Cheng-Prusoff approximation
T1 construct: expressed in transfected cells; host or cells: HeLa
Experimental: (§1) Bioactivity testing was performed using A1 and A2A human adenosine receptors expressed in transfected CHO (A1) and HeLa (A2A) cells, as well as AD293 cells that were transiently transfected with human PDE10A. Table 1 includes the list of synthesized 4,6-substituted 2-amino-pyridin-3-carbonitriles, along with their Ki values against A1R, A2AR, and IC50 values against PDE10A.
(§2) Pharmacological evaluation was performed in a radioligand binding competition assay, using A1, A2A, A2B, and A3 human receptors expressed in transfected CHO (A1), HeLa (A2A and A3), and HEK-293 (A2B) according to the procedure reported by Bosch et al..

human PDE7A = target: T2, human PDE7A (Homo sapiens, UniProt Q13946); test: Phosphodiesterase activity, AD293 cells transiently transfected with human PDE7A; assay type: biochemical; details: for inhibition at 10 µM: 10 µM compound, read-out: Percentage inhibition at 10µM (PDE7A)
T2 construct: expressed in transfected cells; host or cells: AD293 (transient transfection)
T2 sequence (Q13946 whole entry): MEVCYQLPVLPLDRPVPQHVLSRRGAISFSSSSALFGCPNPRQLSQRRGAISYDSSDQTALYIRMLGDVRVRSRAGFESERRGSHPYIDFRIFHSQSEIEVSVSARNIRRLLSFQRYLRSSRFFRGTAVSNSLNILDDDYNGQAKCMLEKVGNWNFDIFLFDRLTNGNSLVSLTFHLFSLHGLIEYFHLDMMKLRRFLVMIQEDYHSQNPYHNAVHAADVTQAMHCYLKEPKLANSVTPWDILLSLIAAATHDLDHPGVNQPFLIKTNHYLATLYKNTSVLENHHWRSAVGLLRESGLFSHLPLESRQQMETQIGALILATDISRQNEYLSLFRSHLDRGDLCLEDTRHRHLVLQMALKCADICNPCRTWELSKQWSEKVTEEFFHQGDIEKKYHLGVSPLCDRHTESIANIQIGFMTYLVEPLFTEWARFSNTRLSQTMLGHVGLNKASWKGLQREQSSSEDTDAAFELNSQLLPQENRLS
Experimental: (§3) The activity measurements against the phosphodiesterases PDE7A, PDE7B, PDE9A and PDE10A were performed using AD293 cells that were transiently and separately transfected with human PDE7A, PDE7B, PDE9A, and PDE10A following the procedure described by Shipe et al..

[2] = target: T3, A2B human receptor (A2BR) (Homo sapiens, UniProt P29275); test: Radioligand binding competition assay, human A2B receptor in transfected HEK-293 cells; details: 0.1 µM compound; read-out: percentage displacement at 0.1µM (A2BR)
T3 construct: expressed in transfected cells; host or cells: HEK-293
T3 sequence (P29275 1-332): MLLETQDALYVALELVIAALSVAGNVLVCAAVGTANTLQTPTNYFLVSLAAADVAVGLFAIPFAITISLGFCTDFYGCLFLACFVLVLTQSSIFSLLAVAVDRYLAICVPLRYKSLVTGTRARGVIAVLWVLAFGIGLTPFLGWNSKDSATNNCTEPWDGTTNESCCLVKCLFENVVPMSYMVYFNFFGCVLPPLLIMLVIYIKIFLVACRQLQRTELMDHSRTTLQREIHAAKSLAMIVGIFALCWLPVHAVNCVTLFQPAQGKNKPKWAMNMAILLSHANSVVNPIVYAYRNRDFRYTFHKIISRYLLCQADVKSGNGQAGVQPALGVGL
Experimental: as §2

human PDE10A = target: T4, human PDE10A (Homo sapiens, UniProt Q9Y233); test: Phosphodiesterase activity, AD293 cells transiently transfected with human PDE10A; assay type: biochemical; details: for IC50: mean of 3 experiments in duplicate; for inhibition at 10 µM: read-out: % inhibition at 10 μM (PDE10A), 10 μM compound
T4 construct: expressed in transfected cells; host or cells: AD293 (transient transfection)
T4 sequence (Q9Y233 267-1055 limits assumed): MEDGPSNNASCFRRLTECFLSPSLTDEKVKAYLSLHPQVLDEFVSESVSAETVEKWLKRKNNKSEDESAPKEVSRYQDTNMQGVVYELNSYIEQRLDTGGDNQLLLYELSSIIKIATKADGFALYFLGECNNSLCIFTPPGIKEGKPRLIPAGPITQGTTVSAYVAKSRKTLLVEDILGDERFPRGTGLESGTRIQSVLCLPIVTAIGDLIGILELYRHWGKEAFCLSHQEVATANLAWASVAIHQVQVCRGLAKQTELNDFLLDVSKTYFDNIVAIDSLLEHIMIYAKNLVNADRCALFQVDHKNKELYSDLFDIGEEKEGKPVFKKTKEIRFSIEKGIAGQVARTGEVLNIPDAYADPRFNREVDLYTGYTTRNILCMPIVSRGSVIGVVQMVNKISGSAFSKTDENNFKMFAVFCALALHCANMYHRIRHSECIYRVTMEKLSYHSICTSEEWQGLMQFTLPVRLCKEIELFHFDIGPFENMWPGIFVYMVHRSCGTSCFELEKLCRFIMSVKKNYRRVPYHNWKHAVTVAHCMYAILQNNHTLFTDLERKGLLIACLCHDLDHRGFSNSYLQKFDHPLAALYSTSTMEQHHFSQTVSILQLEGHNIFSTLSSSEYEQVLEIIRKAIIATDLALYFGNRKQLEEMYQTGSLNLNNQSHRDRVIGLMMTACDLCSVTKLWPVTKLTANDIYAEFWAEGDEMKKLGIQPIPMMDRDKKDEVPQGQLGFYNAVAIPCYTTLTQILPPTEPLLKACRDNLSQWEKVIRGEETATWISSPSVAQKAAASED
Experimental: as §1, §3

[3] = target: T5, A1 human adenosine receptor (A1R) (Homo sapiens, UniProt P30542); test: Radioligand binding competition assay, human A1 receptor in transfected CHO cells; details: for inhibition at 0.1 µM: 0.1 µM compound, read-out: % displacement at 0.1 μM (A1R); for Ki: Cheng-Prusoff approximation
T5 construct: expressed in transfected cells; host or cells: CHO
T5 sequence (P30542 1-326): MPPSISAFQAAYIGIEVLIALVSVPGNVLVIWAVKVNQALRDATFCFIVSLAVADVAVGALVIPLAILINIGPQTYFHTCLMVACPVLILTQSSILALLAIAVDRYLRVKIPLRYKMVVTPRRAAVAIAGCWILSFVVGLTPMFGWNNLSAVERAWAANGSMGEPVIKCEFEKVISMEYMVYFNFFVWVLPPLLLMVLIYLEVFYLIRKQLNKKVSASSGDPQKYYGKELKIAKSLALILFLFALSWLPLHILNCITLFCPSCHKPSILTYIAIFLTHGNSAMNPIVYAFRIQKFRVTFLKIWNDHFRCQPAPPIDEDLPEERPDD
Experimental: Pharmacological evaluation was performed in a radioligand binding competition assay, using A1, A2A, A2B, and A3 human receptors expressed in transfected CHO (A1), HeLa (A2A and A3), and HEK-293 (A2B) according to the procedure reported by Bosch et al. [78].

human PDE7B = target: T6, human PDE7B (Homo sapiens, UniProt Q9NP56); test: Phosphodiesterase activity, AD293 cells transiently transfected with human PDE7B; assay type: biochemical; details: for inhibition at 10 µM: 10 µM compound, read-out: Percentage inhibition at 10µM (PDE7B)
T6 construct: expressed in transfected cells; host or cells: AD293 (transient transfection)
T6 sequence (Q9NP56 whole entry): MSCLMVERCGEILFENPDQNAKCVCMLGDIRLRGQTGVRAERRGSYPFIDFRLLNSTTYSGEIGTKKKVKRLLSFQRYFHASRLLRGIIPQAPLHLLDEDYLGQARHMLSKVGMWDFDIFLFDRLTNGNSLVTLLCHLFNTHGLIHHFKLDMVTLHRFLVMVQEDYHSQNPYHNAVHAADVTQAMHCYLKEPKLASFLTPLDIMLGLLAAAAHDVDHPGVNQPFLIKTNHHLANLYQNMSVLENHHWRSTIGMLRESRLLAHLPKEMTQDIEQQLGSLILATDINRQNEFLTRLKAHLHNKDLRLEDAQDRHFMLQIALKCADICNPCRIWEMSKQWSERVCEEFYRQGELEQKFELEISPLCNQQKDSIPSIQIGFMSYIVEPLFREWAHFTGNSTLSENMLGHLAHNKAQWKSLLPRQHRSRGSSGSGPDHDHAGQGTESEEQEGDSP
Experimental: as §3

human PDE9A = target: T7, human PDE9A (Homo sapiens, UniProt O76083); test: Phosphodiesterase activity, AD293 cells transiently transfected with human PDE9A; assay type: biochemical; details: 10 µM compound; read-out: Percentage inhibition at 10µM (PDE9A)
T7 construct: expressed in transfected cells; host or cells: AD293 (transient transfection)
T7 sequence (O76083 whole entry): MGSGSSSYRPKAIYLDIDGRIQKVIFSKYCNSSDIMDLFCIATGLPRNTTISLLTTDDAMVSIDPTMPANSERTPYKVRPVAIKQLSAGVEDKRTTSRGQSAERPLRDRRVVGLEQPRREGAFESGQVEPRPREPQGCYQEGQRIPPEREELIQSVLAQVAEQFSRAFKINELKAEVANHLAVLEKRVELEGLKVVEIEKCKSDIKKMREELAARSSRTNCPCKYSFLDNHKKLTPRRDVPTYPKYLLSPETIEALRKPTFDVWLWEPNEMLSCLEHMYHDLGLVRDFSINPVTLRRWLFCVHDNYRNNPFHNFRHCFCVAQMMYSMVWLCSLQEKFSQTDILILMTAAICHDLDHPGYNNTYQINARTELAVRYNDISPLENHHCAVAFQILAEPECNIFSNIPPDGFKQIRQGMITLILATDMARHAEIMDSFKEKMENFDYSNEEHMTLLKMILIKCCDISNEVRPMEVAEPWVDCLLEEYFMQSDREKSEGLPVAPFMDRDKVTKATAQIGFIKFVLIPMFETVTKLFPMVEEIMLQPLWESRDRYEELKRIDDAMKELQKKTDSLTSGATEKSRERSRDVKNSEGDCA
Experimental: as §3

A3 human receptor (A3R) = target: T8, A3 human receptor (A3R) (Homo sapiens, UniProt P0DMS8); test: Radioligand binding competition assay, human A3 receptor in transfected HeLa cells; details: 0.1 µM compound; read-out: percentage displacement at 0.1µM (A3R)
T8 construct: expressed in transfected cells; host or cells: HeLa
T8 sequence (P0DMS8 1-318): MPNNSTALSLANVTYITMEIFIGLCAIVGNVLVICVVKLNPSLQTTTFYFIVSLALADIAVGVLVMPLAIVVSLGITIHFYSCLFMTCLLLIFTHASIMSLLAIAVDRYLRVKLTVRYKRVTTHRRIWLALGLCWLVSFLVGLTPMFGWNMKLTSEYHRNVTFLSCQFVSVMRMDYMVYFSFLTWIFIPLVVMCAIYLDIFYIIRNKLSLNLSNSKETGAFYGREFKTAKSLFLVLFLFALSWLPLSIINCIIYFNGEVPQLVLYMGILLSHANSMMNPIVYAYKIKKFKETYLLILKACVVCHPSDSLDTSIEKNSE
Experimental: as §2

T1 sequence (P29274 whole entry): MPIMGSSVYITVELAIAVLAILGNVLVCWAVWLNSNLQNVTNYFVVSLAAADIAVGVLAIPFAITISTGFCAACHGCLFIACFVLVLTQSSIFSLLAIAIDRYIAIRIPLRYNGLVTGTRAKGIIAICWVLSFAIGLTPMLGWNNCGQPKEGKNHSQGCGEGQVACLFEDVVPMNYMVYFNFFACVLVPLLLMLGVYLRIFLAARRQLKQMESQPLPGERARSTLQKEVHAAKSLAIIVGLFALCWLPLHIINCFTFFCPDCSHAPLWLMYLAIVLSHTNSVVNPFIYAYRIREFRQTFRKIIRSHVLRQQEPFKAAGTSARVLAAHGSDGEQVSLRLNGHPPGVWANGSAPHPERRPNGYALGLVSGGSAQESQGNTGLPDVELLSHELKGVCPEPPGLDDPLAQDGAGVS

Row | % displacement at 0.1 μM (A2AR) [1] | inhibition at 10 µM (human PDE7A) | inhibition at 0.1 µM [2] | melting point | IC50 (human PDE10A) | inhibition at 0.1 µM [3] | inhibition at 10 µM (human PDE7B) | inhibition at 10 µM (human PDE9A) | inhibition at 0.1 µM (A3 human receptor (A3R)) | Ki [1] | IC50 (human PDE7A) | inhibition at 10 µM (human PDE10A) | Ki [3] | IC50 (human PDE7B) | SMILES
1 | 32% | 50% | 5% | 152 to 153 °C | 3.6 ± 0.3 µM | 26% | 48% | 2% | 13% |  |  |  |  |  | Cn1cccc1-c1cc(-c2ccccc2)c(C#N)c(N)n1 [Compound 4, 2-amino-6-(1-methyl-1H-pyrrol-2-yl)-4-phenylpyridine-3-carbonitrile]
2 | 18% | 31% | 1% | 120 to 121 °C | 3.7 ± 0.3 µM | 17% | 35% | 9% | 28% |  |  |  |  |  | Cc1ccccc1-c1cc(C2CCCCC2)c(C#N)c(N)n1 [Compound 10, 2-amino-4-cyclohexyl-6-(2-methylphenyl)pyridine-3-carbonitrile]
3 | 1% | 51% | 1% |  | 5.7 ± 0.3 µM | 12% | 27% | 1% | 6% |  |  |  |  |  | COc1ccc(-c2cc(-c3ccccc3)nc(N)c2C#N)c(OC)c1 [Compound 6, 2-amino-4-(2,4-dimethoxyphenyl)-6-phenylpyridine-3-carbonitrile]
4 |  | 24% | 5% |  |  | 53% | 30% | 3% | 26% | 0.543 ± 0.013 µM |  | 28% |  |  | COc1ccccc1-c1cc(-c2ccccc2)nc(N)c1C#N [Compound 5, 2-amino-4-(2-methoxyphenyl)-6-phenylpyridine-3-carbonitrile]
5 | 29% |  | 1% |  |  | 46% | 44% | 7% | 8% |  | 3.5 µM | 65% |  |  | COc1ccc(-c2cc(-c3ccc(O)cc3)nc(N)c2C#N)cc1 [Compound 17, 2-amino-6-(4-hydroxyphenyl)-4-(4-methoxyphenyl)pyridine-3-carbonitrile]

The next lines start with the compound.

Row | SMILES | % displacement at 0.1 μM (A2AR) [1] | inhibition at 10 µM (human PDE7A) | inhibition at 0.1 µM [2] | melting point | IC50 (human PDE10A) | inhibition at 0.1 µM [3] | inhibition at 10 µM (human PDE7B) | inhibition at 10 µM (human PDE9A) | inhibition at 0.1 µM (A3 human receptor (A3R)) | Ki [1] | IC50 (human PDE7A) | inhibition at 10 µM (human PDE10A) | Ki [3] | IC50 (human PDE7B)
6 | COc1ccccc1-c1cc(-c2ccco2)nc(N)c1C#N [Compound 21, 2-amino-6-(furan-2-yl)-4-(2-methoxyphenyl)pyridine-3-carbonitrile] |  |  | 2% | 187 to 188 °C | 10 ± 0.6 µM | 38% | 30% | 17% | 23% | 0.095 ± 0.004 µM | 15.1 µM |  |  | 
7 | N#Cc1c(C2CCCCC2)cc(-c2ccsc2)nc1N [Compound 12, 2-amino-4-cyclohexyl-6-(thiophen-3-yl)pyridine-3-carbonitrile] | 60% | 29% | 2% | 145 to 146 °C | 0.9 ± 0.2 µM | 44% | 60% | 3% | 14% |  |  |  |  | 
8 | N#Cc1c(C2CCCCC2)cc(-c2ccccc2F)nc1N [Compound 9, 2-amino-4-cyclohexyl-6-(2-fluorophenyl)pyridine-3-carbonitrile] | 34% | 19% | 2% | 126 to 127 °C |  |  | 34% | 1% | 7% |  |  | 68% | 0.084 ± 0.008 µM | 
9 | COc1ccc(-c2cc(-c3ccccc3F)nc(N)c2C#N)cc1 [Compound 14, 2-amino-6-(2-fluorophenyl)-4-(4-methoxyphenyl)pyridine-3-carbonitrile] | 30% | 22% | 1% |  |  |  | 20% | 7% | 27% |  |  | 10% | 0.108 ± 0.006 µM | 
10 | COc1ccccc1-c1cc(-c2ccccc2C)nc(N)c1C#N [Compound 20, 2-amino-4-(2-methoxyphenyl)-6-(2-methylphenyl)pyridine-3-carbonitrile] | 50% | 31% | 3% |  | 6.4 ± 0.4 µM | 12% | 23% | 12% | 6% |  |  |  |  | 
11 | COc1ccc(-c2cc(-c3ccco3)nc(N)c2C#N)cc1 [Compound 16, 2-amino-6-(furan-2-yl)-4-(4-methoxyphenyl)pyridine-3-carbonitrile] |  |  | 33% | 205 to 207 °C | 3.2 ± 0.4 µM |  | 30% | 2% | 21% |  | 3.4 µM |  |  | 
12 | N#Cc1c(-c2ccccc2)cc(-c2ccc(F)cc2)nc1N [Compound 1, 2-amino-6-(4-fluorophenyl)-4-phenylpyridine-3-carbonitrile] | 32% | 9% | 2% |  |  |  | 28% | 1% | 27% |  |  | 22% | 0.394 ± 0.012 µM | 
13 | N#Cc1c(-c2ccco2)cc(-c2ccsc2)nc1N [Compound 25, 2-amino-4-(furan-2-yl)-6-(thiophen-3-yl)pyridine-3-carbonitrile] |  | 48% | 5% |  | 5.1 ± 0.4 µM | 15% |  | 14% | 2% | 0.055 ± 0.002 µM |  |  |  | 4.7 µM
14 | COc1ccc(-c2cc(-c3ccccc3C)nc(N)c2C#N)cc1 [Compound 15, 2-amino-4-(4-methoxyphenyl)-6-(2-methylphenyl)pyridine-3-carbonitrile] | 32% | 57% | 4% |  | 1.5 ± 0.2 µM | 6% | 55% | 16% | 17% |  |  |  |  | 
15 | N#Cc1c(-c2ccccc2)cc(-c2ccc(O)cc2)nc1N [Compound 2, 2-amino-6-(4-hydroxyphenyl)-4-phenylpyridine-3-carbonitrile] | 38% | 47% | 2% |  |  |  | 39% | 1% | 2% |  |  | 52% | 0.142 ± 0.007 µM | 
16 | COc1ccccc1-c1cc(-c2ccc(O)cc2)nc(N)c1C#N [Compound 22, 2-amino-6-(4-hydroxyphenyl)-4-(2-methoxyphenyl)pyridine-3-carbonitrile] | 1% | 63% | 1% |  | 5.6 ± 0.5 µM | 8% | 16% | 9% | 2% |  |  |  |  | 

— paper PMC5748027, “Computer-aided design of multi-target ligands at A1R, A2AR and PDE10A, key proteins in neurodegenerative diseases” (Journal of Cheminformatics, 2017)
